In ChEMBL document CHEMBL6134890, “Terminally Symmetric β-Turn Peptides for Multidrug-Resistant Bacterial Infections” (J Med Chem, 2025):
In brackets after ≈: the same amount, converted by molar mass. Activity calls are given as the source filed them. The calls are words filed in the database; no cut-off is given here. Bridge positions count the residues as written; N and C are the ends. Square brackets hold non-standard residues; d marks the D form. Peptide text beside a SMILES is read from it. * marks the point of attachment. X1 = CC[C@H](C)CCCCC(=O)*; dDab = NCC[C@@H](N)C(=O)O; Dab = NCC[C@H](N)C(=O)O

Experiments:
[1] = test system: Klebsiella pneumoniae; experiment: Antimicrobial activity against multi-drug resistant Klebsiella pneumoniae assessed as reduction in bacterial growth by broth dilution method; format: functional
[2] = test system: Escherichia coli; experiment: Antimicrobial activity against Escherichia coli ATCC 25922 assessed as reduction in bacterial growth by broth dilution method; format: functional
[3] = test system: Acinetobacter baumannii; experiment: Antimicrobial activity against multi-drug resistant Acinetobacter baumannii assessed as reduction in bacterial growth by broth dilution method; format: functional
[4] = Hemolytic activity in human Red blood cell assessed as hemolysis incubated for 1 hrs by microplate reader based analysis; format: toxicity; details: erythrocyte
[5] = test system: HEK-293T; experiment: Cytotoxicity against HEK293T cells at 2 to 256 uM measured after 24 hrs by CCK-8 method; format: toxicity, cell-based; details: human, dose 2-256 µM
[6] = test system: Staphylococcus epidermidis; experiment: Antimicrobial activity against multi-drug resistant Staphylococcus epidermidis assessed as reduction in bacterial growth by broth dilution method; format: functional
[7] = test system: L02; experiment: Cytotoxicity against human LO2 cells at 2 to 256 uM measured after 24 hrs by CCK-8 method; format: toxicity, cell-based; details: l02, 24 h, dose 2-256 µM
[8] = test system: BEAS-2B; experiment: Cytotoxicity against human BEAS-2B cells at 2 to 256 uM measured after 24 hrs by CCK-8 method; format: toxicity, cell-based; details: dose 2-256 µM
[9] = test system: Enterococcus faecalis; experiment: Antimicrobial activity against multi-drug resistant Enterococcus faecalis assessed as reduction in bacterial growth by broth dilution method; format: functional
[10] = test system: Staphylococcus aureus; experiment: Antimicrobial activity against multi-drug resistant Staphylococcus aureus assessed as reduction in bacterial growth by broth dilution method; format: functional
[11] = test system: Escherichia coli; experiment: Antimicrobial activity against multi-drug resistant Escherichia coli assessed as reduction in bacterial growth by broth dilution method; format: functional
[12] = test system: Staphylococcus aureus; experiment: Antimicrobial activity against Staphylococcus aureus ATCC 25923 assessed as reduction in bacterial growth by broth dilution method; format: functional
[13] = test system: Staphylococcus aureus; experiment: Antimicrobial activity against multi-drug resistant Staphylococcus aureus assessed as fold increase in MIC in presence of NaCl; format: functional
[14] = test system: Staphylococcus aureus; experiment: Antimicrobial activity against multi-drug resistant Staphylococcus aureus assessed as reduction in bacterial growth at 2 times MIC measured after 1 hrs in presence of chymotrypsin by microplate reader based analysis; format: functional, organism-based
[15] = test system: Escherichia coli; experiment: Antimicrobial activity against multi-drug resistant Escherichia coli assessed as fold increase in MIC measured after 6 hrs in 25% plasma; format: functional
[16] = test system: Escherichia coli; experiment: Antimicrobial activity against multi-drug resistant Escherichia coli assessed as reduction in bacterial growth at 2 times MIC measured after 1 hrs in presence of trypsin by microplate reader based analysis; format: functional, organism-based
[17] = test system: Escherichia coli; experiment: Antimicrobial activity against multi-drug resistant Escherichia coli assessed as reduction in bacterial growth at 2 times MIC measured after 1 hrs in presence of chymotrypsin by microplate reader based analysis; format: functional, organism-based
[18] = test system: Staphylococcus aureus; experiment: Antimicrobial activity against multi-drug resistant Staphylococcus aureus assessed as fold increase in MIC measured after 6 hrs in 25% plasma; format: functional
[19] = Half life of the compound in 25% plasma; format: ADME, cell-free
[20] = test system: Escherichia coli; experiment: Antimicrobial activity against multi-drug resistant Escherichia coli assessed as fold increase in MIC in presence of MgCl2; format: functional
[21] = test system: Escherichia coli; experiment: Antimicrobial activity against multi-drug resistant Escherichia coli assessed as fold increase in MIC in presence of NaCl; format: functional
[22] = test system: Staphylococcus aureus; experiment: Antimicrobial activity against multi-drug resistant Staphylococcus aureus assessed as reduction in bacterial growth at 2 times MIC measured after 1 hrs in presence of trypsin by microplate reader based analysis; format: functional, organism-based
[23] = test system: Staphylococcus aureus; experiment: Antimicrobial activity against multi-drug resistant Staphylococcus aureus assessed as fold increase in MIC in presence of MgCl2; format: functional
[24] = test system: Escherichia coli; experiment: Bactericidal activity against multi-drug resistant Escherichia coli at 1 times MIC preincubated with LPS for 1 hrs followed by bacterial addition and measured after 18 hrs by microplate reader based analysis; format: functional, organism-based; details: time 19.0 hrs
[25] = test system: Staphylococcus aureus; experiment: Antibacterial activity against Staphylococcus aureus ATCC 25923 at sub-inhibitory concentration measured after 7 passages for 18 hrs; format: functional, organism-based
[26] = test system: Cell membrane; experiment: Induction of cytoplasmic membrane depolarization in multi-drug resistant Staphylococcus aureus at 1 to 4 times MIC measured within 1 min by DiSC3-5 fluorescent dye based analysis
[27] = test system: Escherichia coli; experiment: Antibacterial activity against Escherichia coli […] at sub-inhibitory concentration measured after 7 passages for 18 hrs; format: functional, organism-based
[28] = test system: Cell membrane; experiment: Induction of cytoplasmic membrane depolarization in multi-drug resistant Escherichia coli at 1 to 4 times MIC measured within 1 min by DiSC3-5 fluorescent dye based analysis
[29] = test system: Cell membrane; experiment: Induction of outer membrane permeabilization in multi-drug resistant Escherichia coli assessed as NPN uptake at 1 to 4 times MIC measured within 1 min by fluorescence based analysis; format: subcellular

| SMILES | MIC [1] [µM] | MIC [2] [µM] | MIC [3] [µM] | HC10 [4] [µM] | Activity [5] | MIC [6] [µM] | Activity [7] | Activity [8] | MIC [9] [µM] | MIC [10] [µM] | MIC [11] [µM] | MIC [12] [µM] | also measured |
| --- | --- | --- | --- | --- | --- | --- | --- | --- | --- | --- | --- | --- | --- |
| NCCCC[C@H](NC(=O)[C@H](Cc1ccccc1)NC(=O)[C@H](CCCCN)NC(=O)[C@H](Cc1ccccc1)NC(=O)[C@H](CCCCN)NC(=O)[C@@H]1CCCN1C(=O)[C@H](Cc1c[nH]c2ccccc12)NC(=O)[C@H](Cc1c[nH]c2ccccc12)NC(=O)[C@H](Cc1c[nH]c2ccccc12)NC(=O)[C@@H]1CCCN1C(=O)[C@H](CCCCN)NC(=O)[C@H](Cc1ccccc1)NC(=O)[C@H](CCCCN)NC(=O)[C@H](Cc1ccccc1)NC(=O)[C@@H](N)CCCCN)C(N)=O (H-KFKFKPWWWPKFKFK-NH2) | 4 (≈ 8.51 µg/mL) | 2 (≈ 4.26 µg/mL) | 4 (≈ 8.51 µg/mL) | > 256 | Toxic | 4 (≈ 8.51 µg/mL) | Toxic | Toxic | 2 (≈ 4.26 µg/mL) | 4 (≈ 8.51 µg/mL) | 4 (≈ 8.51 µg/mL) | 4 (≈ 8.51 µg/mL) |  |
| CC(C)C[C@H](NC(=O)[C@H](CCCCN)NC(=O)[C@H](CC(C)C)NC(=O)[C@H](CCCCN)NC(=O)[C@@H]1CCCN1C(=O)[C@H](Cc1c[nH]c2ccccc12)NC(=O)[C@H](Cc1c[nH]c2ccccc12)NC(=O)[C@H](Cc1c[nH]c2ccccc12)NC(=O)[C@@H]1CCCN1C(=O)[C@H](CCCCN)NC(=O)[C@H](CC(C)C)NC(=O)[C@H](CCCCN)NC(=O)[C@H](CC(C)C)NC(=O)[C@@H](N)CCCCN)C(=O)N[C@@H](CCCCN)C(N)=O (H-KLKLKPWWWPKLKLK-NH2) | 4 (≈ 7.97 µg/mL) | 4 (≈ 7.97 µg/mL) | 8 (≈ 15.9 µg/mL) | > 256 | Toxic | 8 (≈ 15.9 µg/mL) | Toxic | Toxic | 8 (≈ 15.9 µg/mL) | 8 (≈ 15.9 µg/mL) | 4 (≈ 7.97 µg/mL) | 8 (≈ 15.9 µg/mL) | fold change (FC) [13]: 2; Activity [14]: inactive; fold change (FC) [15]: 2; Activity [16]: inactive; Activity [17]: inactive; fold change (FC) [18]: 2; half-life [19]: 35.4 h; fold change (FC) [20]: 2; fold change (FC) [21]: 2; Activity [22]: inactive; fold change (FC) [23]: 2 |
| CC(C)[C@H](NC(=O)[C@H](CCCCN)NC(=O)[C@@H](NC(=O)[C@H](CCCCN)NC(=O)[C@H](Cc1ccccc1)NC(=O)[C@@H]1CCCN1C(=O)[C@H](Cc1c[nH]c2ccccc12)NC(=O)[C@H](Cc1c[nH]c2ccccc12)NC(=O)[C@H](Cc1c[nH]c2ccccc12)NC(=O)[C@@H]1CCCN1C(=O)[C@H](Cc1ccccc1)NC(=O)[C@H](CCCCN)NC(=O)[C@@H](NC(=O)[C@H](CCCCN)NC(=O)[C@@H](NC(=O)[C@@H](N)CCCCN)C(C)C)C(C)C)C(C)C)C(=O)N[C@@H](CCCCN)C(N)=O (H-KVKVKFPWWWPFKVKVK-NH2) | 16 (≈ 35.7 µg/mL) | 4 (≈ 8.92 µg/mL) | 8 (≈ 17.8 µg/mL) | 243.97 | Toxic | 4 (≈ 8.92 µg/mL) | Toxic | Toxic | 4 (≈ 8.92 µg/mL) | 8 (≈ 17.8 µg/mL) | 4 (≈ 8.92 µg/mL) | 8 (≈ 17.8 µg/mL) |  |
| CC(C)CCCCC(=O)N[C@@H](CCN)C(=O)N[C@H](C(=O)N[C@@H](CCN)C(=O)N[C@H]1CCNC(=O)[C@H]([C@@H](C)O)NC(=O)[C@H](CCN)NC(=O)[C@H](CCN)NC(=O)[C@H](CC(C)C)NC(=O)[C@@H](Cc2ccccc2)NC(=O)[C@@H](CCN)NC1=O)[C@@H](C)O.CC[C@H](C)CCCCC(=O)N[C@@H](CCN)C(=O)N[C@H](C(=O)N[C@@H](CCN)C(=O)N[C@H]1CCNC(=O)[C@H]([C@@H](C)O)NC(=O)[C@H](CCN)NC(=O)[C@H](CCN)NC(=O)[C@H](CC(C)C)NC(=O)[C@@H](Cc2ccccc2)NC(=O)[C@@H](CCN)NC1=O)[C@@H](C)O (X1-[Dab]T[Dab][Dab][dDab][dF]L[Dab][Dab]T; lactam 4-C) |  |  |  |  |  |  |  |  |  |  |  |  | Activity [24]: inactive; Activity [25]: inactive; Activity [26]: inactive; Activity [27]: inactive; Activity [28]: Active; Activity [29]: Active |
